Measured values reported in patent US20260167656A1, “PHOSPHORAMIDATE COMPOUNDS AND USES THEREOF” (ALLORION THERAPEUTICS INC, priority 2022, published 2026).

How the values were obtained:
[1] = system: non-small cell lung cancer cell line H460; assay: In vitro human cancer cell line cytotoxicity (proliferation) assay in H460, CellTiter-Glo, 72 hours; type: cell-based; settings: DMSO condition (no AKR1C3 inhibitor), read-out: CTG H460: Avg IC50 (nM) [Assay Condition: DMSO]
Method in brief: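 H460 cells were seeded at 3×10^3 per well and grown 24 h at 37 °C, 5% CO2 before compound addition from 10 mM DMSO stocks. After 72 h further incubation, viability was measured by CellTiter-Glo, and IC50 values in nM were derived from the proliferation data.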

[2] = system: non-small cell lung cancer cell line H460; assay: H460 proliferation assay in the presence of 3 uM ASP9521 (AKR1C3 specific inhibitor); type: cell-based, human; settings: H460 cells, CellTiter-Glo, 72 hours, in the presence of 3 uM ASP9521 added 4 hours prior to compounds; read-out: CTG H460: Avg IC50 (nM) [Assay Condition: ASP9521]
Method in brief: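 H460 cells pre-incubated 24 h, then exposed to compounds for 72 h at 37 °C, 5% CO2. Viability read by CellTiter-Glo. ASP9521 (3 uM, AKR1C3 inhibitor) added 4 h before compounds.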

[3] = Homo sapiens, NCI-H460, H460 cells
[4] = Homo sapiens, NCI-H460, 72 h, H460 cells

## Cn1cnc2cc(Oc3c([N+](=O)[O-])ccc4c3CC[C@H]4OP(=O)(N3CC3)N3CC3)ccc21 [Example 397]
[1]; [3]
  IC50: < 10 nM
[2]
  IC50: 956 nM

## O=C(c1cccc(Oc2c([N+](=O)[O-])ccc3c2CCC3OP(=O)(N2CC2)N2CC2)c1)N1CCCC1 (centres unmarked) [Example 99]
[1]; [4]
  IC50: < 10 nM
[2]
  IC50: 1010 nM

## Cn1ccc2cc(Oc3c([N+](=O)[O-])ccc4c3CC[C@H]4OP(=O)(N3CC3)N3CC3)ccc21 [Example 386]
[1]; [4]
  IC50: < 10 nM
[2]
  IC50: 1410 nM

## Cn1c(=O)oc2ccc(Oc3c([N+](=O)[O-])ccc4c3CC[C@@H]4OP(=O)(N3CC3)N3CC3)cc21 [Example 380]
[1]; [4]
  IC50: < 10 nM
[2]
  IC50: 722 nM

## Cn1nnc(-c2cccc(Oc3c([N+](=O)[O-])ccc4c3CC[C@@H]4OP(=O)(N3CC3)N3CC3)c2)n1 [Example 354]
[1]; [4]
  IC50: < 10 nM
[2]
  IC50: 768 nM

## CN(C)C(=O)c1cccc(Oc2c([N+](=O)[O-])ccc3c2CCC3OP(=O)(N2CC2)N2CC2)c1 (single isomer, unassigned) [Example 33]
[1]; H460 cells
  IC50: < 10 nM
[2]
  IC50: 476 nM

## Cc1noc(-c2cccc(Oc3c([N+](=O)[O-])ccc4c3CCC4OP(=O)(N3CC3)N3CC3)c2)n1 (centres unmarked) [Example 119]
[1]; [4]
  IC50: < 10 nM
[2]
  IC50: 644 nM

## O=[N+]([O-])c1ccc2c(c1Oc1cccc(OC3COC3)c1)CCC2OP(=O)(N1CC1)N1CC1 (racemic) [Example 465]
[1]; H460 cells
  IC50: < 10 nM
[2]
  IC50: 705 nM

## Cc1nc(-c2cccc(Oc3c([N+](=O)[O-])ccc4c3CCC4OP(=O)(N3CC3)N3CC3)c2)no1 (centres unmarked) [Example 88]
[1]; H460 cells
  IC50: 50 to 100 nM
[2]
  IC50: 3570 nM

## O=C(NC1CCC1)c1ccc(Oc2cc3c(cc2[N+](=O)[O-])CCC3OP(=O)(N2CC2)N2CC2)cc1 (centres unmarked) [Example 191]
[1]; H460 cells
  IC50: < 10 nM
[2]
  IC50: 661 nM

## O=[N+]([O-])c1ccc2c(c1Oc1ccnc(C3CC3)c1)CCC2OP(=O)(N1CC1)N1CC1 (racemic) [Example 312]
[1]; H460 cells
  IC50: < 10 nM
[2]
  IC50: 312 nM

## O=C(NC1CCC1)c1ccc(Oc2c([N+](=O)[O-])ccc3c2CC[C@H]3OP(=O)(N2CC2)N2CC2)cc1 [Example 262]
[1]; H460 cells
  IC50: < 10 nM
[2]
  IC50: 945 nM

## CN(C)C(=O)c1cccc(Oc2c([N+](=O)[O-])ccc3c2OCCC3OP(=O)(N2CC2)N2CC2)c1 (centres unmarked) [Example 129]
[1]; H460 cells
  IC50: 10 to 50 nM
[2]
  IC50: 982 nM

## O=[N+]([O-])c1ccc2c(c1Oc1cccc(-n3cccn3)c1)CCC2OP(=O)(N1CC1)N1CC1 (centres unmarked) [Example 113]
[1]; [4]
  IC50: < 10 nM
[2]
  IC50: 650 nM

## O=[N+]([O-])c1cc2c(cc1Oc1ccc(-c3ccccc3)nc1)[C@H](OP(=O)(N1CC1)N1CC1)CC2 [Example 528]
[1]; H460 cells
  IC50: < 10 nM
[2]
  IC50: 880 nM

## O=C(c1cccc(Oc2c([N+](=O)[O-])ccc3c2CCC3OP(=O)(N2CC2)N2CC2)c1)N1CC(F)(F)C1 (centres unmarked) [Example 66]
[1]; [4]
  IC50: < 10 nM
[2]
  IC50: 736 nM

## CN(C)C(=O)c1cccc(Oc2cc3cc(COP(=O)(N4CC4)N4CC4)oc3cc2[N+](=O)[O-])c1 [Example 229, (5-(3-(dimethylcarbamoyl)phenoxy)-6-nitrobenzofuran-2-yl)methyl di(aziridin-1-yl)phosphinate]
[1]; [4]
  IC50: < 10 nM
[2]
  IC50: 515 nM

## CN(C(=O)c1cccc(Oc2c([N+](=O)[O-])ccc3c2CC[C@@H]3OP(=O)(N2CC2)N2CC2)c1)c1cnn(C)c1 [Example 254]
[1]; H460 cells
  IC50: < 10 nM
[2]
  IC50: 786 nM

## O=[N+]([O-])c1cc2c(cc1Oc1ccc(-c3ccccc3)nc1)C(OP(=O)(N1CC1)N1CC1)CC2 (centres unmarked) [Example 192]
[1]; [4]
  IC50: < 10 nM
[2]
  IC50: 1090 nM

## O=C1c2cc(Oc3c([N+](=O)[O-])ccc4c3OCCC4OP(=O)(N3CC3)N3CC3)ccc2CN1C1CC1 (single isomer, unassigned) [Example 139]
[1]; H460 cells
  IC50: < 10 nM
[2]
  IC50: 839 nM

## O=[N+]([O-])c1ccc2c(c1Oc1ccc(F)c(Br)c1)CCC2OP(=O)(N1CC1)N1CC1 (centres unmarked) [Example 510]
[1]; H460 cells
  IC50: < 10 nM
[2]
  IC50: 535 nM

## O=[N+]([O-])c1ccc2c(c1Oc1cccc(OC(F)F)c1)CC[C@@H]2OP(=O)(N1CC1)N1CC1 [Example 457]
[1]; H460 cells
  IC50: < 10 nM
[2]
  IC50: 768 nM

## C[C@@H]1CN(C(=O)c2cccc(Oc3c([N+](=O)[O-])ccc4c3CC[C@H]4OP(=O)(N3CC3)N3CC3)c2)C[C@H](C)O1 [Example 248]
[1]; H460 cells
  IC50: < 10 nM
[2]
  IC50: 1650 nM

## CN1CCc2ccc(Oc3cc4c(cc3[N+](=O)[O-])OCCC4OP(=O)(N3CC3)N3CC3)cc2C1=O (centres unmarked) [Example 200]
[1]; [4]
  IC50: 10 to 50 nM
[2]
  IC50: 434 nM

## CS(=O)(=O)c1cc(Oc2c([N+](=O)[O-])ccc3c2CCC3OP(=O)(N2CC2)N2CC2)ccc1F (centres unmarked) [Example 508]
[1]; H460 cells
  IC50: < 10 nM
[2]
  IC50: 519 nM

## CSc1ccc(Oc2c([N+](=O)[O-])ccc3c2CCC3OP(=O)(N2CC2)N2CC2)cc1 (centres unmarked) [Example 505]
[1]; H460 cells
  IC50: < 10 nM
[2]
  IC50: 327 nM

## O=[N+]([O-])c1ccc2c(c1Oc1ccc(-c3ccccc3)cc1)OCCC2OP(=O)(N1CC1)N1CC1 (centres unmarked) [Example 135]
[1]; H460 cells
  IC50: < 10 nM
[2]
  IC50: 482 nM

## C[C@@H](OP(=O)(N1CC1)N1CC1)c1cc2cc(Oc3cccc(OC(F)(F)F)c3)c([N+](=O)[O-])cc2o1 (single isomer, unassigned) [Example 531]
[1]; [4]
  IC50: < 10 nM
[2]
  IC50: 1430 nM

## O=C1c2cc(Oc3c([N+](=O)[O-])ccc4c3OCCC4OP(=O)(N3CC3)N3CC3)ccc2CN1C1CC1 (single isomer, unassigned) [Example 138]
[1]; [4]
  IC50: < 10 nM
[2]
  IC50: 579 nM

## Cc1nnc(-c2cccc(Oc3c([N+](=O)[O-])ccc4c3CC[C@@H]4OP(=O)(N3CC3)N3CC3)c2)s1 [Example 349]
[1]; [4]
  IC50: < 10 nM
[2]
  IC50: 498 nM

## CC(C)c1cc(Oc2c([N+](=O)[O-])ccc3c2CCC3OP(=O)(N2CC2)N2CC2)ccc1F (centres unmarked) [Example 331]
[1]; H460 cells
  IC50: < 10 nM
[2]
  IC50: 1050 nM

## O=c1ccccn1-c1cccc(Oc2c([N+](=O)[O-])ccc3c2CCC3OP(=O)(N2CC2)N2CC2)c1 (centres unmarked) [Example 80]
[1]; [4]
  IC50: < 10 nM
[2]
  IC50: 909 nM

## O=C1OCCN1c1cccc(Oc2c([N+](=O)[O-])ccc3c2CCC3OP(=O)(N2CC2)N2CC2)c1 (centres unmarked) [Example 70]
[1]; [3]
  IC50: < 10 nM
[2]
  IC50: 380 nM

## O=C1CCCN1c1cc(Oc2c([N+](=O)[O-])ccc3c2CC[C@H]3OP(=O)(N2CC2)N2CC2)ccc1F [Example 428]
[1]; H460 cells
  IC50: < 10 nM
[2]
  IC50: 1200 nM

## O=C(NC1CC1)c1cc(Oc2c([N+](=O)[O-])ccc3c2CC[C@@H]3OP(=O)(N2CC2)N2CC2)ccc1F [Example 261]
[1]; H460 cells
  IC50: 10 to 50 nM
[2]
  IC50: 5690 nM

## O=[N+]([O-])c1cc2c(cc1Oc1ccccc1-c1ccccc1)C(OP(=O)(N1CC1)N1CC1)CC2 (centres unmarked) [Example 196]
[1]; [4]
  IC50: ≥ 100 nM
[2]
  IC50: 6370 nM

## O=[N+]([O-])c1ccc2c(c1Oc1cccc(OC(F)(F)F)c1)CC[C@H]2OP(=O)(N1CC1)N1CC1 [Example 450]
[1]; H460 cells
  IC50: < 10 nM
[2]
  IC50: 1060 nM

## O=[N+]([O-])c1ccc2c(c1Oc1cccc(C(F)(F)F)c1)CCC2OP(=O)(N1CC1)N1CC1 (centres unmarked) [Example 308]
[1]; H460 cells
  IC50: < 10 nM
[2]
  IC50: 357 nM

## CN1Cc2ccc(Oc3cc4c(cc3[N+](=O)[O-])OCCC4OP(=O)(N3CC3)N3CC3)cc2C1=O (single isomer, unassigned) [Example 202]
[1]; H460 cells
  IC50: < 10 nM
[2]
  IC50: 1390 nM

## O=C(c1cccc(Oc2c([N+](=O)[O-])ccc3c2CCC3OP(=O)(N2CC2)N2CC2)c1)N1CCC(F)(F)C1 (centres unmarked) [Example 101]
[1]; [4]
  IC50: < 10 nM
[2]
  IC50: 1210 nM
